Source: patent US20250195528A1, “DOSE REGIMEN OF VICASINABIN” (Hoffmann-La Roche Inc., priority 2022, published 2025)
Where two headings read alike, the source gives them in different places.

How the values were obtained:
leukostasis in the eye = assay: Leukostasis in the eye, rodent diabetic and non-diabetic model; assay type: in vivo
Description: (§1) Pharmacological studies were performed in vitro and in vivo to investigate the potency, selectivity and activity of RO6868847. Pharmacological effects were determined in vivo in two different diabetic animal models which include the streptozotocin (STZ)-induced rat Type 1 diabetes and genetic Type 2 diabetes mouse models as well as in two acute models with acute inflammatory stimulus (LPS-injections) or laser injury (CNV). Additional in vitro pharmacology studies were performed to explore the pharmacological effect of RO6868847 and the suitability of the assays as biomarkers of target engagement and pharmacodynamic effect (PD) in human whole blood obtained from either healthy volunteers or diabetic patients.
(§2) The diversity of the tested models (including acute challenge versus disease-modifying models) and the absence of a recommended nonclinical DME/DR model with proven clinical translatability presents a challenge for the estimation of pharmacologically active exposure in humans.

[1] = test system: 15-lipoxygenase, MAGL, diacylglycerol lipase, or FAAH enzymes; assay: Functional cellular assays, enzymes of the endocannabinoid pathway; assay type: cell-based; conditions: 10 μM in mouse
[2] = Study BP40387 Part 1 (SAD) pharmacokinetics, healthy participants; assay type: in vivo, human; conditions: single and multiple dose, on average
human CB2 = target: T1, human CB2 (Homo sapiens, UniProt P34972); assay: Radioligand binding to CB2, U698M cells expressing endogenous CB2
T1 construct: expressed in transfected cells; host or cells: CHO cells
T1 sequence (P34972 whole entry): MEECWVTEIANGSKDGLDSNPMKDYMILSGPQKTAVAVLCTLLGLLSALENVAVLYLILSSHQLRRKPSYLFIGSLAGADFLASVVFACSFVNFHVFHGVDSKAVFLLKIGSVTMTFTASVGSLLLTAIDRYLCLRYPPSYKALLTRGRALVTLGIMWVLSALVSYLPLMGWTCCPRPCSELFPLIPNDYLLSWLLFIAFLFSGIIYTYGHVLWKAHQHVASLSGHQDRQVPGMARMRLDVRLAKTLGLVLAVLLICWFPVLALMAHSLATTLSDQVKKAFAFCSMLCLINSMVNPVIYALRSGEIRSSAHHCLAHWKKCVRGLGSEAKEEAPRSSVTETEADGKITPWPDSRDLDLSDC

[3] = parameters: species or system human; conditions: in vivo
Source text: In Study BP40387, in Part 1, 11 participants (24.4%), Part 2, 1 participant (12.5%), Part 3, 16 participants (40%), Part 4, 12 participants (70.6%) and Part 5, 2 participants (11.1%), had reported at least 1 AE (see Table 22). One participant (5.9%) in Part 4 of the study was withdrawn by the investigator because of AEs. The AEs reported in more than 2 participants in Part 1 was medical device site erythema (6 participants in each PT) and vascular procedure complication (2 participants in each PT), in Part 3 was medical device site erythema (5 participants in each PT), constipation (3 participants in each PT) medical device site papule, medical device site pruritus, vascular procedure complication, headache (each 2 participants), and in Part 4 constipation (2 participants in each PT). […] The event was considered to be related to vicasinabin by the investigator and resolved without sequelae within one week after treatment discontinuation.

CB2 = target: T2, CB2 (Rattus norvegicus, UniProt Q9QZN9); assay: In vitro rat Ki; assay type: binding
T2 sequence (Q9QZN9 1-360): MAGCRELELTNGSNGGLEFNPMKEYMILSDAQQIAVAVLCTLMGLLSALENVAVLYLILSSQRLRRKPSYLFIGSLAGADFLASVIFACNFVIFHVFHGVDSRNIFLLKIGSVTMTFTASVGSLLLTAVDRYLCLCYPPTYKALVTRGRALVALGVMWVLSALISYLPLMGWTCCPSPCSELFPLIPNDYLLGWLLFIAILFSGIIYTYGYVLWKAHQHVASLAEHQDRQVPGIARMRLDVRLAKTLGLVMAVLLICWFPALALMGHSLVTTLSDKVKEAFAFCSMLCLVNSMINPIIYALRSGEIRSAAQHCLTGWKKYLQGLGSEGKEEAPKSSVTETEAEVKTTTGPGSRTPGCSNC
Source text: FIG. 10 illustrates Disease Markers versus Free Exposure of the Active S-Epimer RO6868847 in Several Animal Models. […] Disease markers (hyperfluorescence area in mm^2, OD retina-plasma fluorescein ratio, number of leukocytes per mm^2 or total length of processes in mm) as a percent of the control value (100% represents the vehicle-treated diabetic control and 0% for vehicle-treated healthy control) in different in vivo PD models as a function of the free AUC0-24 of the active S-epimer RO6868847.
(§3) Based on this integrated assessment, the pharmacologically active exposure range observed in rats spans 2 logs, with an upper bound (unbound AUC0-24 [S-epimer]=546 ng·hr/mL) corresponding to the full effect at 10 mg/kg in a rat STZ-induced Type 1 diabetes model and the lower bound (unbound AUC0-24 [S-epimer]=2.8 ng·hr/mL) corresponding to 50% decrease in disease marker (hypoerfluorescence area) in a laser-induced NV rat model.

[4] = test system: laser-induced neovascularization; assay type: in vivo, rat
Description: as §1, §2
Exposure was derived from satellite animals or extrapolated from previous PK or PD studies in the same species.
as §3

[5] = test system: STZ-induced Type 1 diabetes; assay type: in vivo; conditions: rat, 10 mg/kg
Description: as §1, §2
Exposure was derived from satellite animals or extrapolated from previous PK or PD studies in the same species. […]

[6] = test system: LPS-induced G-CSF, IFNγ, IL1β and TNFα levels in whole blood; assay: In vitro LPS whole blood challenge assay; assay type: cell-based, human
Description: In order to explore any putative anti-inflammatory pharmacodynamic effect mediated by the CB2 agonist RO6868847 in a potentially clinically relevant human sample, an ex vivo whole blood lipopolysacharid (LPS) challenge assay was performed. Sodium heparin whole blood samples from healthy participants (n=8) were incubated in vitro for 1 hour at 37° C. with eight increasing concentrations of RO6868847 (0-30 μM) and exposed to LPS (100 ng/ml). After 18 h at 37° C. supernatants were analyzed for alterations in a range of chemokines and cytokines using Luminex-bead based multiplex ELISAs.
In addition, this in vitro LPS whole blood challenge assay was also used in samples from diabetic (Type I and Type II) and matched healthy participants (table 6). In order to explore whether the exposure (0-30 μM)-response relationship of RO6868847 and the respective alterations in cytokine levels may be changed by any chronic inflammatory conditions in diabetes (DM) and/or in elderly healthy participants (HP), who are anticipated to be the study population of the Phase II proof of concept Study.

[7] = diabetic patients and matched healthy participants

SMILES: Cn1nnnc1Cn1nnc2c(N3CC[C@H](O)C3)nc(C(C)(C)C)nc21 [RO6868847, (3S)-1-[5-tert-butyl-3-[(1-methyltetrazol-5-yl)methyl]triazolo[4,5-d]pyrimidin-7-yl]pyrrolidin-3-ol]
- leukostasis in the eye (leukostasis in the eye): inhibition of leukostasis in the eye
- activity at endocannabinoid pathway enzymes [1]: no activity
- Renal excretion, share of the dose administered [2]: less than 5%
- IC50 (human CB2): 0.0922 ± 0.0131 µM
- Ki (human CB2): 0.0628 µM
- participants withdrawn because of AEs ([3]; both, human, 14 days): 5.9%
- clinical laboratory parameters, ECGs, vital signs, C-SSRS, VAS, TBNK assay, neurological examinations [3]: No specific concerns
- Ki (CB2; rat): 33.3 nM
- unbound AUC0-24 at in vitro rat Ki as share of upper bound of active exposure (CB2; rat): 52%
- free AUC0-24 extrapolated from rat Ki (CB2; rat Ki x 24): 286 ng·h/mL
- Ki (CB2; rat, converted from nM): 33.5 nM
- decrease in disease marker (hyperfluorescence area) ([4]; rat, at unbound AUC0-24 2.8 ng·hr/mL): 50%
- unbound AUC0-24 [S-epimer], lower bound of pharmacologically active exposure ([4]; rat, in vivo): 2.8 ng·hr/mL
- retinal hyperfluorescence ([4]; rodent laser injury model): reduction of retinal hyperfluorescence
- effect on disease marker [5]: full effect
- unbound AUC0-24 [S-epimer], upper bound of pharmacologically active exposure ([5]; in vivo): 546 ng·hr/mL
- IC50 ([6]; Homo sapiens, DM, 3/9, read-out: IC50 (IL-1β)/μM): 29.4 ± 24.1 µM
- IC50 ([6]; Homo sapiens, DM, 7/9, read-out: IC50 (IFNγ)/μM): 6.91 ± 2.29 µM
- IC50 ([6]; Homo sapiens, HV, 3/8, read-out: IC50 (TNFα)/μM): 7 ± 4.61 µM
- IC50 ([6]; Homo sapiens, HV, 5/8, read-out: IC50 (IL-1β)/μM): 5.02 ± 4.58 µM
- IC50 ([6]; Homo sapiens, HV, 6/8, read-out: IC50 (IFNγ)/μM): 10.9 ± 8.9 µM
- IC50 ([6]; Homo sapiens, Matched HVs, 4/8, read-out: IC50 (IFNγ)/μM): 12.4 ± 4.19 µM
- EC50 ([6]; Homo sapiens, HV, curves fitted 5/8): 7.97 ± 6.71 µM
- G-CSF and TNFα levels post LPS [6, 7]: an overall drug response in the explored exposure range could not be concluded
- IFNγ level post LPS [6, 7]: dose-dependent attenuation of IFNγ
- chemokine and cytokine levels post LPS stimulation ([6]; healthy participants n=8, 0-30 μM, LPS 100 ng/ml, 18 h): decrease of IFNγ, IL1β, TNFα and elevation of G-CSF
